Legend:
CYP 3A4 = target: T1, CYP 3A4 (Homo sapiens, UniProt P08684); experiment: Methemoglobinemic metabolite formation with Baculosomes, CYP 3A4; type: cell-based
T1 construct: purchased; host or cells: insect cells infected with recombinant baculovirus

CYP 2A6 = target: T2, CYP 2A6 (Homo sapiens, UniProt P11509); experiment: Methemoglobinemic metabolite formation with Baculosomes, CYP 2A6; type: cell-based; details: mean ± S.D. of four
T2 construct: purchased; host or cells: insect cells infected with recombinant baculovirus
T2 sequence (P11509 1-494): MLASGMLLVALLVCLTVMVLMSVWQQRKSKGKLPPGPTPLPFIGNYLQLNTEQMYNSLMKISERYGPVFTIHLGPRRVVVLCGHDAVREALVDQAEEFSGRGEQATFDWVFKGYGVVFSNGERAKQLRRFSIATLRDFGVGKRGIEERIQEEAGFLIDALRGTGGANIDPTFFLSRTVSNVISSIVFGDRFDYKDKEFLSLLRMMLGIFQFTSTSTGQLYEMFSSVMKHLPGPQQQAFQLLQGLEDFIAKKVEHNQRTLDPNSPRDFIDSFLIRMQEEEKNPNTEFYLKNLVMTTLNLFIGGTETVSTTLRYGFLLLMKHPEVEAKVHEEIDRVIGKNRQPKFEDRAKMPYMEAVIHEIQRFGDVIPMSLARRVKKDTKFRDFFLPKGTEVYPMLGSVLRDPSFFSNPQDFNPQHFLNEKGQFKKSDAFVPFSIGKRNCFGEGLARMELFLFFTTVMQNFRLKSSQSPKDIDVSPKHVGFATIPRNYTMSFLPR

CYP 2C8 = target: T3, CYP 2C8 (Homo sapiens, UniProt P10632); experiment: Methemoglobinemic metabolite formation with Baculosomes, CYP 2C8; type: cell-based; details: mean ± S.D. of four
T3 construct: purchased; host or cells: insect cells infected with recombinant baculovirus
T3 sequence (P10632 1-490): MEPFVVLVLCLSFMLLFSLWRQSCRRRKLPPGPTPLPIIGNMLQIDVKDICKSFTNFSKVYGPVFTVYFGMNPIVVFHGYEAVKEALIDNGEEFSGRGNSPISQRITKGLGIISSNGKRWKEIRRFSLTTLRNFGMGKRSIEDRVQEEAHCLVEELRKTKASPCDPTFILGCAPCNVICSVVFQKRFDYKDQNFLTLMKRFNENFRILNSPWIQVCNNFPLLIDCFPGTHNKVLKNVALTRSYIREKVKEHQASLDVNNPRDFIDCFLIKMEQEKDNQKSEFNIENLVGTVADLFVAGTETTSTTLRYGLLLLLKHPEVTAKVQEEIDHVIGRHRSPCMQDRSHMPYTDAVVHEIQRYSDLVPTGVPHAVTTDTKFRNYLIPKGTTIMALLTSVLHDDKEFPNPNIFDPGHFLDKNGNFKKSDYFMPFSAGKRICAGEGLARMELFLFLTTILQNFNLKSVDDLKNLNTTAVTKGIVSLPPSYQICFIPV

CYP 2C19 = target: T4, CYP 2C19 (Homo sapiens, UniProt P33261); experiment: Methemoglobinemic metabolite formation with Baculosomes, CYP 2C19; type: cell-based; details: mean ± S.D. of four
T4 construct: purchased; host or cells: insect cells infected with recombinant baculovirus
T4 sequence (P33261 whole entry): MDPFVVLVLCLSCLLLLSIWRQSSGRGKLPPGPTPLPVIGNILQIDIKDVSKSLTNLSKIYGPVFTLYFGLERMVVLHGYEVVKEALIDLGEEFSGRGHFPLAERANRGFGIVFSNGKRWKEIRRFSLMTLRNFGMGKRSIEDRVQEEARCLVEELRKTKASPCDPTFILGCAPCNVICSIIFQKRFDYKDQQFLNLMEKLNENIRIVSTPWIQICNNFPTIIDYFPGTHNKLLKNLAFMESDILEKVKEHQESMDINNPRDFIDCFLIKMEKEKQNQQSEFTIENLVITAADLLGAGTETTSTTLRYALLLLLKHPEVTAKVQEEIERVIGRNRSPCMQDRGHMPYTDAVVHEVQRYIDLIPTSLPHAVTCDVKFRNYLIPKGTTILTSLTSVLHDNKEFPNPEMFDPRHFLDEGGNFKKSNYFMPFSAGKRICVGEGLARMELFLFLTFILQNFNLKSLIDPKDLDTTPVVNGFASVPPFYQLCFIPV

[1] = test system: individual human liver microsomes (HLM)
Experimental: In one aspect of the present invention, an in vitro assay is developed for evaluation of biotransformation reactions leading to generation of methemoglobinemic metabolites of 8-aminoquinolines. This method uses simultaneous incubation of a test compound with the hepatic microsomes or Baculosomes® (microsomes prepared from insect cells infected with recombinant baculovirus containing a cDNA insert for a specific human P450 isozyme and NADPH-P450 reductase) and human erythrocytes followed by determination of methemoglobin formation. This allows the unstable metabolites generated in situ to react with the human erythrocytes.
For Correlation analysis six different lots of individual human liver microsomes (HLM) were obtained from BD biosciences (www.gentest.com ) with good variations in CYP3A4 activity (Testosterone 6β-hydroxylase activity ranging from 700-12,000 pmol/mg protein). […] Donor information, genotypes, immunoquantitation was provided along with the characterization table, with different cytochrome P450 assays conducted with NADPH regenerating system, MgCl2 and 0.1M potassium phosphate buffer.

Plasmodium berghei = experiment: In vivo antimalarial evaluation in Plasmodium berghei-mouse malaria model
Description: One concern with this method of controlling 8-aminoquinoline toxicity is that the inhibition metabolism of the drug may impair its antiparasitic efficacy. […] Thus treatment of the individuals with NPC1161B along with an inhibitor of CYP3A4 should not compromise the therapeutic efficiency of NPC1161B.

T1 sequence (P08684 2-503 limits assumed): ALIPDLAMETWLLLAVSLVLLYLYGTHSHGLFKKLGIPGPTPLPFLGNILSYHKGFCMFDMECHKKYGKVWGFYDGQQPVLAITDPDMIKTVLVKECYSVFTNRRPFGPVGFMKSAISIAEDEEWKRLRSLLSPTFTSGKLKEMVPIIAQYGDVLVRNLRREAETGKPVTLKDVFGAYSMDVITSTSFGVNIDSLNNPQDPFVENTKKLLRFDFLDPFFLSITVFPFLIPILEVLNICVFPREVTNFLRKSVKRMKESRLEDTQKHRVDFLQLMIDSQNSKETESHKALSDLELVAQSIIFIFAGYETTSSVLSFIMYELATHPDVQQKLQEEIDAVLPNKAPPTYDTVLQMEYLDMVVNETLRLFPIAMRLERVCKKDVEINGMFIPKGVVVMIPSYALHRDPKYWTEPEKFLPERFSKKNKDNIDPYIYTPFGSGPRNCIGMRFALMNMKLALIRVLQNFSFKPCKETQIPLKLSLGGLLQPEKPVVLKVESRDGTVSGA

COc1cc(N[C@H](C)CCCN)c2nccc(C)c2c1Oc1ccc(Cl)c(Cl)c1 [NPC1161B]
% methemoglobin formed, Cimetidine (CYP 3A4; 3A4 Baculosomes, 8-aminoquinoline 100 μM with Cimetidine 100 μM): 8.567 ± 0.600% | % methemoglobin formed, Erythromycin (CYP 3A4; 3A4 Baculosomes, 8-aminoquinoline 100 μM with Erythromycin 100 μM): 11.655 ± 1.818% | % methemoglobin formed, Ketoconazole (CYP 3A4; 3A4 Baculosomes, 8-aminoquinoline 100 μM with Ketoconazole 100 μM): 9.615 ± 1.552% | % methemoglobin formed, Troleandomycin (CYP 3A4; 3A4 Baculosomes, 8-aminoquinoline 100 μM with Troleandomycin 100 μM): 2.785 ± 0.628% | % methemoglobin formed, inhibitor None (CYP 3A4; 3A4 Baculosomes, 8-aminoquinoline 100 μM, no inhibitor): 18.185 ± 2.809% | % methemoglobin formed, CYP 3A4 (CYP 3A4; Baculosomes, mean ± S.D. of four): 15.280 ± 1.077% | CYP responsible for metabolism (CYP 3A4; FIG. 4, Table 2): primarily metabolized by CYP 3A4 | methemoglobin toxicity generated by CYP 3A4, comparison among the three 8-aminoquinolines (CYP 3A4; FIG. 5): almost similar methemoglobin toxicity | % methemoglobin formed, CYP 2A6 (CYP 2A6): 2.135 ± 0.530% | % methemoglobin formed, CYP 2C8 (CYP 2C8): 1.353 ± 0.791% | % methemoglobin formed, CYP 2C19 (CYP 2C19): 3.870 ± 0.577% | R value, linear correlation between % methemoglobin formation and CYP3A4 Content of HLM preparation [1]: > 0.9 | correlation of methemoglobin toxicity with CYP 2D6 or CYP2E1 contents of HLM preparations [1]: did not correlate | deaths (Plasmodium berghei; NPC 1161B 0.312 mg/kg × 3 oral +TAO (i.p.)): nil | (%) Parasitemia (Plasmodium berghei; NPC 1161B 0.312 mg/kg × 3 oral +TAO (i.p.), day 10 p.i., individual mice): 0/0/0/0/0 | (%) Parasitemia (Plasmodium berghei; NPC 1161B 0.312 mg/kg × 3 oral +TAO (i.p.), day 14 p.i., mean in brackets): 2.83/2.04/+/5.29/0 (2.0) % | (%) Parasitemia (Plasmodium berghei; NPC 1161B 0.312 mg/kg × 3 oral +TAO (i.p.), day 21 p.i., mean in brackets): 23.8/32.4/0/28.3/0 (16.9) % | deaths (Plasmodium berghei; NPC 1161B 0.312 mg/kg × 3 oral, Alone): nil | (%) Parasitemia (Plasmodium berghei; NPC 1161B 0.312 mg/kg × 3 oral, Alone, day 14 p.i., mean in brackets): 0/5.8/0.66/0.8/1.36 (2.9) % | (%) Parasitemia (Plasmodium berghei; NPC 1161B 0.312 mg/kg × 3 oral, Alone, day 21 p.i., mean in brackets): 11.3/53.3/19.4/6.0/17.8 (21.5) % | deaths (Plasmodium berghei; NPC 1161B 0.625 mg/kg × 3 oral +TAO (i.p.)): nil | (%) Parasitemia (Plasmodium berghei; NPC 1161B 0.625 mg/kg × 3 oral +TAO (i.p.), day 10 p.i., individual mice): 0/0/0/0/0 | (%) Parasitemia (Plasmodium berghei; NPC 1161B 0.625 mg/kg × 3 oral +TAO (i.p.), day 21 p.i., mean in brackets): 8.4/0/10.4/18.4/1.5 (7.7) % | deaths (Plasmodium berghei; NPC 1161B 0.625 mg/kg × 3 oral, Alone): nil | (%) Parasitemia (Plasmodium berghei; NPC 1161B 0.625 mg/kg × 3 oral, Alone, day 7 p.i., individual mice): 0/0/0/0/0 | (%) Parasitemia (Plasmodium berghei; NPC 1161B 0.625 mg/kg × 3 oral, Alone, day 21 p.i., mean in brackets): 0/+/5.2/2.6/3.7 (2.3) % | deaths (Plasmodium berghei; NPC 1161B 1.25 mg/kg × 3 oral +TAO (i.p.)): nil | (%) Parasitemia (Plasmodium berghei; NPC 1161B 1.25 mg/kg × 3 oral +TAO (i.p.), day 7 p.i., individual mice): 0/0/0/0/0 | (%) Parasitemia (Plasmodium berghei; NPC 1161B 1.25 mg/kg × 3 oral +TAO (i.p.), day 10 p.i., individual mice): 0/0/0/0/0 | (%) Parasitemia (Plasmodium berghei; NPC 1161B 1.25 mg/kg × 3 oral +TAO (i.p.), day 14 p.i., individual mice): 0/0/0/0/0 | (%) Parasitemia (Plasmodium berghei; NPC 1161B 1.25 mg/kg × 3 oral +TAO (i.p.), day 21 p.i., individual mice): 0/0/0/0/0 | (%) Parasitemia (Plasmodium berghei; NPC 1161B 1.25 mg/kg × 3 oral +TAO (i.p.), day 28 p.i., individual mice): 0/0/0/0/0 | deaths (Plasmodium berghei; NPC 1161B 1.25 mg/kg × 3 oral, Alone): nil | (%) Parasitemia (Plasmodium berghei; NPC 1161B 1.25 mg/kg × 3 oral, Alone, day 7 p.i., individual mice): 0/0/0/0/0 | (%) Parasitemia (Plasmodium berghei; NPC 1161B 1.25 mg/kg × 3 oral, Alone, day 10 p.i., individual mice): 0/0/0/0/0 | (%) Parasitemia (Plasmodium berghei; NPC 1161B 1.25 mg/kg × 3 oral, Alone, day 14 p.i., individual mice): 0/0/0/0/0 | (%) Parasitemia (Plasmodium berghei; NPC 1161B 1.25 mg/kg × 3 oral, Alone, day 21 p.i., individual mice): 0/0/0/0/0 | (%) Parasitemia (Plasmodium berghei; NPC 1161B 1.25 mg/kg × 3 oral, Alone, day 28 p.i., individual mice): 0/0/0/0/0 | deaths (Plasmodium berghei; NPC 1161B 2.5 mg/kg × 3 oral +TAO (i.p.)): nil | (%) Parasitemia (Plasmodium berghei; NPC 1161B 2.5 mg/kg × 3 oral +TAO (i.p.), day 7 p.i., individual mice): 0/0/0/0/0 | (%) Parasitemia (Plasmodium berghei; NPC 1161B 2.5 mg/kg × 3 oral +TAO (i.p.), day 10 p.i., individual mice): 0/0/0/0/0 | (%) Parasitemia (Plasmodium berghei; NPC 1161B 2.5 mg/kg × 3 oral +TAO (i.p.), day 14 p.i., individual mice): 0/0/0/0/0 | (%) Parasitemia (Plasmodium berghei; NPC 1161B 2.5 mg/kg × 3 oral +TAO (i.p.), day 21 p.i., individual mice): 0/0/0/0/0 | (%) Parasitemia (Plasmodium berghei; NPC 1161B 2.5 mg/kg × 3 oral +TAO (i.p.), day 28 p.i., individual mice): 0/0/0/0/0 | deaths (Plasmodium berghei; NPC 1161B 2.5 mg/kg × 3 oral, Alone): nil | (%) Parasitemia (Plasmodium berghei; NPC 1161B 2.5 mg/kg × 3 oral, Alone, day 7 p.i., individual mice): 0/0/0/0/0 | (%) Parasitemia (Plasmodium berghei; NPC 1161B 2.5 mg/kg × 3 oral, Alone, day 10 p.i., individual mice): 0/0/0/0/0 | (%) Parasitemia (Plasmodium berghei; NPC 1161B 2.5 mg/kg × 3 oral, Alone, day 14 p.i., individual mice): 0/0/0/0/0 | (%) Parasitemia (Plasmodium berghei; NPC 1161B 2.5 mg/kg × 3 oral, Alone, day 21 p.i., individual mice): 0/0/0/0/0 | (%) Parasitemia (Plasmodium berghei; NPC 1161B 2.5 mg/kg × 3 oral, Alone, day 28 p.i., individual mice): 0/0/0/0/0 | effect of troleandomycin on the antimalarial property of NPC1161B (Plasmodium berghei; mice infected with Plasmodium berghei, Table 7): does not antagonize

From patent publication US20070190188A1, “Controlling Toxicity of Aminoquinoline Compounds” (The University of Mississippi, priority 2005, published 2007)
